Measurements: US20220023454A1, “PHOTODYNAMIC METHOD TO DECONTAMINATE SURFACES” (priority 2020, published 2022)

Assays:
[1] = tested on: feline calicivirus (FCV); experiment: Photodynamic inactivation of FCV in water with photosensitizer and light; details: for log reduction in FCV: 3 minute exposure; for efficacy against FCV: photodynamic treatment, under the conditions tested (10, 25, 50 μM PS; light exposure)
Procedure: (§1) The inactivation of HuNoV surrogates (e.g., feline calicivirus (FCV) and Tulane virus (TuV)) was studied, by exposure to light in the presence of photosensitizer dyes in water, FCV and TuV were mixed with different concentrations (10, 25, and 50 μM) of three different PS (Rose Bengal (RB), Phloxine B (Ph-B) and chlorophyllin) and then exposed to light for a period of time, e.g., 1, 3, 5, or 10 minutes. While not being limited to a mode of action, capsid integrity and/or genome integrity may be impacted by the exposure of viruses to light in the presence of the PS.
(§2) Shellfish and fresh produce are the most frequent foods implicated in human norovirus (HuNoV) outbreaks in the US. Decontamination of virus-contaminated waters used in depuration of oysters, clams or mussels, and in post-harvest washing of fresh produce, is a mitigation strategy for this human biothreat risk. […] Although the PDT has been studied extensively for bacterial inactivation, studies on its use for viral inactivation in food and water are scarce. Inactivation of >4 log TCID50 of two HuNoV surrogates (feline calicivirus (FCV) and Tulane virus (TuV)) in water was observed upon exposure to LED-blue light for 3 to 10 min using Rose Bengal (RB) or Phloxine-B (Ph-B) as photosensitizers. The virucidal effect of PDT may depend on the type of treated virus, the light source, the type and concentration of the photosensitizer (PS), and the operational parameters such as the distance between the light source and treated object and/or exposure time.

[2] = tested on: Tulane virus (TuV); experiment: Photodynamic inactivation of TuV in water with photosensitizer and light; details: for efficacy against TuV: photodynamic treatment, under the conditions tested (10, 25, 50 μM PS; light exposure)
Procedure: as §1, §2

[3] = tested on: Gram positive or Gram negative bacterial suspension, e.g., E. coli, Salmonella enterica, Staphylococcus aureus, or Bacillus subtilis; experiment: Decontamination of lettuce leaves and stainless-steel discs spiked with bacteria, blue LED light, agar plate count; details: 50 μM Phloxin-B, 1 cm distance, blue LED 1, 3, 5, and 10 minutes; lettuce leaf or stainless-steel surface
Procedure: Romaine lettuce leaves are cut into small squares (2×2 cm) and then are disinfected using 300 ppm sodium hypochlorite followed by rinsing three times with sterilized distilled water. Sterile stainless-steel discs are also used as a model for surface decontamination. Each sample is spiked with 50 μL of a Gram positive or Gram negative bacterial suspension, e.g., E. coli, Salmonella enterica, Staphylococcus aureus, or Bacillus subtilis, then dried for 30 minutes. 100 μL of a 50 μM Phloxin-B solution is then added to each spiked leaf or stainless-steel surface. The samples are exposed at a 1 cm distance to the blue LED light source for 1, 3, 5, and 10 minutes. After each exposure time any surviving bacterial cells are recovered in 500 μL of recovery buffer followed by vortexing for 0.5 to 1 minute. The surviving bacterial cells are enumerated using Agar plate count technique. A ≥3 log reduction in the bacterial cell counts is observed.

[4] = tested on: FCV; experiment: Virus added to light-preexposed Ph-B solution, cell culture titration; design: species or system feline calicivirus; details: 50 μM Phloxin-B pre-exposed to blue LED light 1-10 min; 1 to 5 min contact
Procedure: (§3) Several 50 μM stocks of Phloxin-B solution are prepared (500 μL each). Each stock is pre-exposed to the blue LED light for specific times (e.g., 1, 2, 3, 5, and 10 min). Immediately after light exposure, 50 μL of the tested virus (FCV, TuV, and TGEV) is added to the light-preexposed Ph-B solution for about 1 to 5 min contact times before titrating the surviving virus using a cell culture assay. A >3 log reduction in the virus titer is observed.

[5] = tested on: TuV; experiment: as above; design: species or system Tulane virus; details: 50 μM Phloxin-B pre-exposed to blue LED light 1-10 min; 1 to 5 min contact
Procedure: as §3

[6] = tested on: TGEV; experiment: as above; design: species or system transmissible gastroenteritis virus; details: 50 μM Phloxin-B pre-exposed to blue LED light 1-10 min; 1 to 5 min contact
Procedure: as §3

Molecule	log reduction in FCV ([1]; 50 μM Ph-B)	efficacy against FCV [1]	log reduction in TuV ([2]; 5 minute exposure, 50 μM Ph-B)	efficacy against TuV [2]	log reduction in the bacterial cell counts [3]	log reduction in the virus titer (FCV) [4]	log reduction in the virus titer (TuV) [5]	log reduction in the virus titer (TGEV) [6]	log reduction in FCV ([1]; 25 μM RB)	log reduction in TuV ([2]; 10 minute exposure, 50 μM RB)
O=C([O-])c1c(Cl)c(Cl)c(Cl)c(Cl)c1-c1c2cc(Br)c(=O)c(Br)c-2oc2c(Br)c([O-])c(Br)cc12.[Na+].[Na+] [Ph-B, Phloxine B]	4 log	high efficacy	4 log	high efficacy	≥ 3 log	> 3 log	> 3 log	> 3 log		
O=C1OC2(c3cc(I)c(O)c(I)c3Oc3c2cc(I)c(O)c3I)c2c(Cl)c(Cl)c(Cl)c(Cl)c21 [RB, Rose Bengal]		high efficacy		high efficacy					4 log	4 log
chlorophyllin		low efficacy								
